From publication PMC12504763, “Antiproliferation, 3D-multicellular spheroid and VEGFR-2 inhibitory properties of spiroindolin-2-ones with phosphonate function” (Scientific Reports, 2025)
Values joined by “and” are separate entries in the source; they are usually repeats but may differ in a detail not shown here. Identical values can stand only once. Like-named read-outs stand apart in the source and are kept apart here.

Legend:
HCT116 3D-spheroid = HCT116 3D-spheroid at 50 μM, relative to control
TNF-α [1] = test: TNF-α inhibitory properties (ELISA), HCT116 cell lysate; format: cell-based, human; details: at 10 μM; for TNF-α pg/mL (± SEM) HCT116: control 95.74 ± 0.5
TNF-α [2] = test: TNF-α inhibitory properties (ELISA), MCF7 cell lysate; format: cell-based, human; details: at 10 μM; for TNF-α pg/mL (± SEM) MCF7: control 83.26 ± 1.1
[3] = test system: A549 (lung) cancer cell line; test: 2D-monolayer antiproliferation (MTT) against A549; format: cell-based, human; details: for IC50: Homo sapiens, MTT, 72 h incubation, A549 lung, read-out: IC50, μM ± SEM A549; for SI (selectivity index) A549: IC50 of RPE1 normal cell/IC50 of A549
TNF-α [4] = test: TNF-α inhibitory properties (ELISA), PaCa2 cell lysate; format: cell-based, human; details: at 10 μM; for TNF-α pg/mL (± SEM) PaCa2: control 111.8 ± 2.0
COX-2 = molecular target: T1, COX-2 (Homo sapiens, UniProt P35354); test: biochemical; details: for inhibition at 10 µM: 3 replicates, read-out: % Inhibition of COX-2 ± SEM; for SI (selectivity index, COX-2/COX-1): at 10 μM
T1 construct: purchased BioVision incorporated USA K548–100
T1 sequence (P35354 18-604): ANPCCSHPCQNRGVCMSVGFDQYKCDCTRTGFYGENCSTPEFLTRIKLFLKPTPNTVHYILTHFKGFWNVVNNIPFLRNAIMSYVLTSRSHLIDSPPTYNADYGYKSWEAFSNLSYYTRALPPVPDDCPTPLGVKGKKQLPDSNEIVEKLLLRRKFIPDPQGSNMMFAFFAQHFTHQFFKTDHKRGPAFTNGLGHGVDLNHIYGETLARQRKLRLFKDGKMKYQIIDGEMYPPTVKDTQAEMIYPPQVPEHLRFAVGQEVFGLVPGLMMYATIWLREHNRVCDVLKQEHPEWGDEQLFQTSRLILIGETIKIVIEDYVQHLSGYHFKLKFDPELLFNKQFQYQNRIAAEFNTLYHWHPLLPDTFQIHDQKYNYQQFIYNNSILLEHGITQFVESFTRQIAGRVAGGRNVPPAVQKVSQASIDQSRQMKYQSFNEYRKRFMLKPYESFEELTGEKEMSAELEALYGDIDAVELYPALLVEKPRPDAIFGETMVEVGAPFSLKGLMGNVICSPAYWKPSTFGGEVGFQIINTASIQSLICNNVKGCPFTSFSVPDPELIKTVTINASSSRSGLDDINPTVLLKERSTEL

[5] = test system: MCF7 (breast) cancer cell line; test: 2D-monolayer antiproliferation (MTT) against MCF7; format: cell-based, human; details: for IC50: Homo sapiens, MTT, 72 h incubation, MCF7 breast, read-out: IC50, μM ± SEM MCF7; for SI (selectivity index) MCF7: IC50 of RPE1 normal cell/IC50 of MCF7
VEGFR-2 [6] = molecular target: T2, VEGFR-2 (Homo sapiens, UniProt P35968); test: cell-based; format: cell-based; details: for inhibition at 10 µM: MCF7; for VEGFR-2 pg/mL ± SEM MCF7: at 10 μM, control 258.70 ± 2.3
T2 construct: endogenous in cells; host or cells: HCT116, PaCa2, MCF7 (human cancer cell lines, ATCC origin)
T2 sequence (P35968 20-1356): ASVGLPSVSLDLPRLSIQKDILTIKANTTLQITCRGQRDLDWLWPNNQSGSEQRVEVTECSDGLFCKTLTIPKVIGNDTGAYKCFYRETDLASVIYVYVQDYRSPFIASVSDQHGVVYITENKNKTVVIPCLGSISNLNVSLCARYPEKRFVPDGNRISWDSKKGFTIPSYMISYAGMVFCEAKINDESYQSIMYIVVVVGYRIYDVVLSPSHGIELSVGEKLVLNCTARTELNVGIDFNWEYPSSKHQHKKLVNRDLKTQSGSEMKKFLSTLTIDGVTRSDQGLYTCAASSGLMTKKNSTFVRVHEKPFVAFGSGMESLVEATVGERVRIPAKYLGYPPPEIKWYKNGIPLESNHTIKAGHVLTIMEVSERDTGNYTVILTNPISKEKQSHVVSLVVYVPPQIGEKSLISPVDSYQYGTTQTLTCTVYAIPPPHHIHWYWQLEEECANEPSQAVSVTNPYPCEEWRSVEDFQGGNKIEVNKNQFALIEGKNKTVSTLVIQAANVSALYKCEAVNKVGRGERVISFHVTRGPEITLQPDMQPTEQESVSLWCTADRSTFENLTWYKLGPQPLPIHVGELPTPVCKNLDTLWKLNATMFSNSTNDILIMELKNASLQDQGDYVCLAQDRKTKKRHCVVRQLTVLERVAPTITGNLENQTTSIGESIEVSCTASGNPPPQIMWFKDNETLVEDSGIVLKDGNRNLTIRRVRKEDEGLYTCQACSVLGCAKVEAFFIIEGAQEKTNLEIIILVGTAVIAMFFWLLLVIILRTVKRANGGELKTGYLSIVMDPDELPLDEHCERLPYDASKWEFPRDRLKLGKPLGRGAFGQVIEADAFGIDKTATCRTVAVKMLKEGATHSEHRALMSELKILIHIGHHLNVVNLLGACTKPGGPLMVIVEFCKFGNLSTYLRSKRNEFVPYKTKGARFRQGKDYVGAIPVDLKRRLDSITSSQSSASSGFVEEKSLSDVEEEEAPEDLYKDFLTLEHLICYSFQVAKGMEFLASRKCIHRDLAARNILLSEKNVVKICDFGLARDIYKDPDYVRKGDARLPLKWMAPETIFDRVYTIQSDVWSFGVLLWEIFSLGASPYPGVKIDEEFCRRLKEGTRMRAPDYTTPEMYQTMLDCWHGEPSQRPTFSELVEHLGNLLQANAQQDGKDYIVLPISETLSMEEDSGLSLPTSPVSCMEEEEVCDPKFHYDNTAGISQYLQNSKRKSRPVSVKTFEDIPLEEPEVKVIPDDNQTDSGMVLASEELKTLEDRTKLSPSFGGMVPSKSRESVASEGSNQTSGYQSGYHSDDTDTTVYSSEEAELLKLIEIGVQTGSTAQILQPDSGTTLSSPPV

[7] = test system: PaCa2 (pancreatic) cancer cell line; test: 2D-monolayer antiproliferation (MTT) against PaCa2; format: cell-based, human; details: for 1/(observed property): 1/observed IC50 (μM), PaCa2; for IC50: Homo sapiens, PaCa-2, MTT, 72 h incubation, PaCa2 pancreatic, read-out: IC50, μM ± SEM PaCa2; for SI (selectivity index) PaCa2: IC50 of RPE1 normal cell/IC50 of PaCa2
VEGFR-2 [8] = molecular target: T2, VEGFR-2; test: cell-based; format: cell-based; details: for inhibition at 10 µM: HCT-116, HCT116; for VEGFR-2 pg/mL ± SEM HCT116: at 10 μM, control 317.80 ± 3.5
[9] = test system: HCT116 (colon) cancer cell line; test: 2D-monolayer antiproliferation (MTT) against HCT116; format: cell-based, human; details: for IC50: Homo sapiens, HCT-116; for SI (selectivity index) HCT116: IC50 of RPE1 normal cell/IC50 of HCT116
COX-1 = molecular target: T3, COX-1 (Ovis aries, UniProt P05979); test: biochemical; details: 3 replicates, read-out: % Inhibition of COX-1 ± SEM
T3 construct: purchased BioVision incorporated USA K548–100
T3 sequence (P05979 25-600): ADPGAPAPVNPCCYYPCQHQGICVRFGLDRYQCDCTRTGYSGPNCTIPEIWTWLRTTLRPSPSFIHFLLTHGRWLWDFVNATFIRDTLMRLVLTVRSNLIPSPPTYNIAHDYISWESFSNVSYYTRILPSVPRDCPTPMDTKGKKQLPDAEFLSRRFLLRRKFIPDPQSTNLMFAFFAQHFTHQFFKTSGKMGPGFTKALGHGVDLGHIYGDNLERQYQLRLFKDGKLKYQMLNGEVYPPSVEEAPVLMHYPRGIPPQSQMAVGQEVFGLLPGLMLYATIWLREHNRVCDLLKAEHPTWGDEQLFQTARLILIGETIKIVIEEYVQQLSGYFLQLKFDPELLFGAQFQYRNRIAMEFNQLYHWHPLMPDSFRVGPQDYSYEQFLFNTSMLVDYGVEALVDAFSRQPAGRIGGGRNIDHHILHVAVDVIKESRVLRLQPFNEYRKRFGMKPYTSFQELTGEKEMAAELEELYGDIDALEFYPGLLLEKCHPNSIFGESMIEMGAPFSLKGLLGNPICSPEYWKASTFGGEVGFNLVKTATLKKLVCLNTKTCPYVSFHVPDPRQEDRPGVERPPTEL

CAM blood vessel network = test: Chick chorioallantoic membrane (CAM) anti-angiogenic assay; format: in vivo, chicken; details: 20 μL of 660 μM, 3 days; for Diameter of blood vessel (μm ± SEM): CAM test, control 459.7 ± 13.8
Experimental: CAM assay is an established xenograft technique for investigating the angiogenic effect due to the high resemblance of the human vascularized epithelium basement membrane with that of the chorioallantoic layer containing mainly type IV collagen[84]–[86].
Fig. 10 Images of light microscopy for anti-angiogenic evaluation of the tested compounds using CAM assay. […] The glass slide was placed on the surface of the CAM blood vessel network and left in an incubator at 37 °C for 3 days. The CAM blood vessel network was carefully cut and imaged under a light microscope (40 × magnification).
Fertilized white chicken eggs were incubated in a 37 °C incubator with constant humidity. On day 8, a small squared window was opened allowing the detachment of the growing CAM and shell. The opening was covered with an elastic bandage. […] The CAM was then sealed with a bandage and placed back in the incubator. CAMs were examined daily until day 12 (3 days), the vascularized membranes were then cut around the glass slide and fixed in 5% formalin. Images were taken with an Evos microscope at 40x and 100x magnification^9. Main blood vessel in the microscopic images of controls and samples were quantified by imageJ and analyzed for significant differences (n = 4).

VEGFR-2 [10] = molecular target: T2, VEGFR-2; test: cell-based; format: cell-based; details: for inhibition at 10 µM: PaCa-2, PaCa2; for VEGFR-2 pg/mL ± SEM PaCa2: at 10 μM, control 326.80 ± 1.9
[11] = test system: RPE1 (normal human immortalized retinal pigment epithelial cell line); test: cells; format: cell-based; details: Homo sapiens, RPE-1; MTT, normal RPE1 cell; read-out: IC50, μM ± SEM RPE1
[12] = test system: A549 (lung) cancer cell line; set-up: method as in Reference 45; details: standard drug doxorubicin; ref Reference 45; cited from earlier work
[13] = test system: PaCa2 (pancreatic) cancer cell line; set-up: method as in Reference 30; details: standard drug sunitinib; ref Reference 30; cited from earlier work
[14] = MTT, 72 h incubation, HCT116 colon, read-out: IC50, μM ± SEM HCT116
[15] = log of observed IC50 (μM), HCT116, read-out: Log(observed property) (converted)

SMILES	%CT (± SEM), percentage cytotoxicity (HCT116 3D-spheroid)	TNF-α pg/mL (± SEM) HCT116 (TNF-α [1]) [pg/mL]	TNF-α % inhibition MCF7 (TNF-α [2]) [%]	TNF-α pg/mL (± SEM) MCF7 (TNF-α [2]) [pg/mL]	IC50 [3] [µM]	SI (selectivity index) A549 [3]	TNF-α pg/mL (± SEM) PaCa2 (TNF-α [4]) [pg/mL]	inhibition at 10 µM (COX-2) [%]	SI (selectivity index, COX-2/COX-1) (COX-2)	IC50 [5] [µM]	SI (selectivity index) MCF7 [5]	inhibition at 10 µM (VEGFR-2 [6]) [%]	VEGFR-2 pg/mL ± SEM MCF7 (VEGFR-2 [6]) [pg/mL]	1/(observed property) [7]	IC50 [7] [µM]	SI (selectivity index) PaCa2 [7]	inhibition at 10 µM (VEGFR-2 [8]) [%]	VEGFR-2 pg/mL ± SEM HCT116 (VEGFR-2 [8]) [pg/mL]	IC50 [9, 14] [µM]	Diameter of blood vessel (μm ± SEM) (CAM blood vessel network) [μm]	also measured
CCOP(=O)(OCC)N1C/C(=C\c2ccc(OC)cc2)C(=O)C2(C1)C(c1ccc(OC)cc1)CN(C)C21C(=O)Nc2ccccc21 (centres unmarked) [Compound 17p, Diethyl (E)-[5′′-(4-methoxybenzylidene)-4′-(4-methoxyphenyl)-1′-methyl-2,4′′-dioxodispiro[indoline-3,2′-pyrrolidine-3′,3′′-piperidin]-1′′-yl]phosphonate]	68.3% and 68.3 ± 0.6%	26.21 ± 1.3	65.7	28.56 ± 2.9	13 ± 0.284	1.1	25.8 ± 1.8	53.5 ± 2.1	1.10	5.43 ± 0.14	2.6	81.3	48.30 ± 0.4	0.1367	7.32 ± 0.226	1.9	90	31.80 ± 0.8	5.51 ± 0.138	79.3 ± 3.3	IC50 [9, 15]: 5.51 µM; SI (selectivity index) HCT116 [9]: 2.6; inhibition at 10 µM (COX-1): 51.1 ± 2.7%; inhibition at 10 µM (VEGFR-2 [10]): 93.3%; VEGFR-2 pg/mL ± SEM PaCa2 (VEGFR-2 [10]): 21.76 ± 0.4 pg/mL; IC50 [11]: 14.2 ± 0.638 µM
CCOP(=O)(OCC)N1C/C(=C\c2cccs2)C(=O)C2(C1)C(c1cccs1)CN(C)C21C(=O)Nc2ccc(Cl)cc21 (centres unmarked) [Compound 17s, Diethyl (E)-[5-chloro-1′-methyl-2,4′′-dioxo-4′-(thiophen-2-yl)-5′′-(thiophen-2-ylmethylene)dispiro[indoline-3,2′-pyrrolidine-3′,3′′-piperidin]-1′′-yl]phosphonate]	77.9% and 77.9 ± 1.2%	86.57 ± 2.0	1.9	81.64 ± 3.7	8.1 ± 0.091	1.3	90.6 ± 2.8	56.3 ± 2.3	0.83	4.64 ± 0.068	2.2	81.6	47.60 ± 0.6	0.163	6.13 ± 0.131	1.7	83.1	53.80 ± 0.9	5.42 ± 0.288	61.3 ± 4.3	TNF-α % inhibition HCT116 (TNF-α [1]): 9.6%; TNF-α % inhibition PaCa2 (TNF-α [4]): 19.0%; IC50 [9, 15]: 5.42 µM; SI (selectivity index) HCT116 [9]: 1.9; inhibition at 10 µM (COX-1): 53.8 ± 2.8%; % Inhibition of the blood vessels in CAM test (CAM blood vessel network): 86.7%; inhibition at 10 µM (VEGFR-2 [10]): 91.9%; VEGFR-2 pg/mL ± SEM PaCa2 (VEGFR-2 [10]): 26.50 ± 0.5 pg/mL; IC50 [11]: 10.2 ± 0.545 µM
COc1cccc2c1C(=O)c1c(O)c3c(c(O)c1C2=O)C[C@@](O)(C(=O)CO)C[C@@H]3O[C@H]1C[C@H](N)[C@H](O)[C@H](C)O1 [Doxorubicin]	–	–	–	–	–	–	–	–	–	–	–	–	–	–	–	–	–	–	–	–	IC50 [12]: 5.93 µM
CCN(CC)CCNC(=O)c1c(C)[nH]c(/C=C2\C(=O)Nc3ccc(F)cc32)c1C [Sunitinib, reference compound]	–	–	–	–	–	–	–	–	–	–	–	–	–	–	–	–	–	–	–	52.3 ± 1.7	IC50 [13]: 16.9 µM; % Inhibition of the blood vessels in CAM test (CAM blood vessel network): 88.6%
